In patent US20230083012A1, “DIHYDROPYRIMIDINE DERIVATIVES AND USES THEREOF IN THE TREATMENT OF HBV INFECTION OR OF HBV-INDUCED DISEASES” (priority 2019, published 2023):
Read-outs that look alike come from different tables or passages of the source.

Tests used:
Type in all cases: cell-based
HBV = assay: Anti-HBV activity in HepG2.2.15 cells (HBV DNA in culture medium by qPCR)
Summary of the method: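 Secreted HBV DNA was measured by real-time PCR after 6-day compound exposure of HepG2.2.15 cells (2% FBS, 37 °C, re-dosed after 3 days), giving EC50 from 8-point 1:3 series starting at 10 or 1 uM. Cytotoxicity (CC50) run separately at lower cell density, top 100 uM.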

HepG2.2.15 cells = assay: Cytotoxicity determination in HepG2.2.15 cells (CCK-8 cell viability); conditions: 6 days treatment, CCK-8 assay, highest concentration 100 uM
Summary of the method: (§1)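 Viability measured by CCK-8 absorbance (450 nm, 630 nm reference, 2.5 h at 37° C) after six days of treatment, medium and compound renewed on day 3. Top concentration 100 uM, eight threefold dilutions in triplicate; cells plated at 5,000/well in 2% FBS medium; CC50 derived.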

[1] = as above; conditions: human, 6 days treatment, CCK-8 assay, highest concentration 100 uM
Summary of the method: as §1

[2] = HepG2.2.15 cells, 6 days treatment, HBV DNA in culture medium quantified by real-time PCR, read-out: EC50
[3] = Hepatitis B virus, HepG2.2.15, 144 h, HepG2.2.15 cells, 6 days treatment, HBV DNA in culture medium quantified by real-time PCR, read-out: EC50

SMILES | EC50 (HBV; [2]) [nM] | CC50 (HepG2.2.15 cells) [nM] | EC50 (HBV; [3]) [nM] | CC50 at 6 days [1] [nM] | EC50 (HBV; Hepatitis B virus, HepG2.2.15, 144 h) [nM]
CCOC(=O)C1=C(CN2CC(F)(F)[C@H]3[C@@H]2CN(C(C)=O)N3CCC(C)(C)C(=O)O)NC(c2nccs2)=N[C@H]1c1cccc(F)c1C [Compound 70B, 4-((cis)-2-Acetyl-4-(((S)-5-(ethoxycarbonyl)-6-(3-fluoro-2-methylphenyl)-2-(thiazol-2-yl)-3,6-dihydropyrimidin-4-yl)methyl)-6,6-difluorohexahydropyrrolo[3,2-c]pyrazol-1(2H)-yl)-2,2-dimethylbutanoic acid] | 16 | > 50000 | – | – | –
CCOC(=O)C1=C(CN2CC(F)(F)[C@@H]3C(=O)N(CC(CC)(CC)C(=O)O)C[C@@H]32)NC(c2nccs2)=N[C@H]1c1cccc(F)c1C (single isomer, unassigned) [Compound 202] | – | – | 23 | 100000 | –
[2H]C([2H])(CC(C)(C)C(=O)O)N1CC[C@H]2[C@@H]1C(F)(F)CN2CC1=C(C(=O)OCC)[C@H](c2cccc(F)c2C)N=C(c2nccs2)N1 (single isomer, unassigned) [Compound 137] | – | – | 1 | 21800 | –
COC(=O)C1=C(CN2CC(F)(F)[C@@H]3C(=O)N(CC(C)(C)C(=O)O)C[C@@H]32)NC(c2nccs2)=N[C@H]1c1cccc(F)c1Cl (single isomer, unassigned) [Compound 29, 3-((cis)-1-((6-(2-chloro-3-fluorophenyl)-5-(methoxycarbonyl)-2-(thiazol-2-yl)-3,6-dihydropyrimidin-4-yl)methyl)-3,3-difluoro-4-oxohexahydropyrrolo[3,4-b]pyrrol-5(1H)-yl)-2,2-dimethylpropanoic acid] | – | – | 13.5 | > 100000 | –
COC(=O)C1=C(CN2CC(F)(F)[C@@H]3CN(CC(C)(C)C(=O)O)C[C@@H]32)NC(c2nccs2)=N[C@H]1c1ccc(F)cc1Cl (single isomer, unassigned) [Compound 20B, 3-((cis)-1-((6-(2-chloro-4-fluorophenyl)-5-(methoxycarbonyl)-2-(thiazol-2-yl)-3,6-dihydropyrimidin-4-yl)methyl)-3,3-difluorohexahydropyrrolo[3,4-b]pyrrol-5(1H)-yl)-2,2-dimethylpropanoic acid] | – | – | 39.5 | > 100000 | –
COC(=O)C1=C(CN2CC(F)(F)[C@H]3[C@@H]2CCN3C[C@@H](C)C(=O)O)NC(c2nccs2)=N[C@H]1c1cccc(F)c1C (single isomer, unassigned) [Compound 131B, 3-((cis)-6,6-Difluoro-4-(((S*)-6-(3-fluoro-2-methylphenyl)-5-(methoxycarbonyl)-2-(thiazol-2-yl)-3,6-dihydropyrimidin-4-yl)methyl)hexahydropyrrolo[3,2-b]pyrrol-1(2H)-yl)-2-methylpropanoic acid] | 29.7 | 65600 | – | – | –
CCOC(=O)C1=C(CN2CCC3C(=O)N(CC(C)(C)C(=O)O)CC32)NC(c2nccs2)=N[C@H]1c1cccc(F)c1C (stereo partly drawn) [Compound 25] | – | – | 95.2 | 95500 | –
CCOC(=O)C1=C(CN2CC(F)(F)[C@@H]3[C@H]2CN(C(=O)C(F)(F)F)N3CCC(C)(C)C(=O)O)NC(c2nccs2)=N[C@H]1c1cccc(F)c1C (stereo in doubt) [Compound 71, 4-((cis)-4-(((S)-5-(ethoxycarbonyl)-6-(3-fluoro-2-methylphenyl)-2-(thiazol-2-yl)-3,6-dihydropyrimidin-4-yl)methyl)-6,6-difluoro-2-(2,2,2-trifluoroacetyl)hexahydropyrrolo[3,2-c]pyrazol-1(2H)-yl)-2,2-dimethylbutanoic acid] | – | – | – | 20900 | 29
CCOC(=O)C1=C(CN2CC(F)(F)[C@H]3[C@@H]2CC2(CC2)N3CCC(C)(C)C(=O)O)NC(c2nccs2)=N[C@H]1c1cccc(F)c1C (single isomer, unassigned) [Compound 154] | – | – | 71 | 48300 | –
COC(=O)C1=C(CN2CC(F)(F)[C@@H]3CN(CC(C)(C)C(=O)O)C[C@@H]32)NC(c2nccs2)=N[C@H]1c1ccc(F)c(F)c1Cl (single isomer, unassigned) [Compound 21B, 3-((cis)-1-((6-(2-chloro-3,4-difluorophenyl)-5-(methoxycarbonyl)-2-(thiazol-2-yl)-3,6-dihydropyrimidin-4-yl)methyl)-3,3-difluorohexahydropyrrolo[3,4-b]pyrrol-5(1H)-yl)-2,2-dimethylpropanoic acid] | – | – | 22.7 | 97300 | –
CCOC(=O)C1=C(CN2C[C@H](F)[C@H]3[C@@H]2CON3CCC(C)(C)C(=O)O)NC(c2nccs2)=N[C@H]1c1cccc(F)c1C (single isomer, unassigned) [Compound 177] | – | – | 15 | 24000 | –
CCOC(=O)C1=C(CN2CC(F)(F)[C@@H]3[C@H]2CN(CC(F)F)N3CCC(C)(C)C(=O)O)NC(c2nccs2)=N[C@H]1c1cccc(F)c1C (single isomer, unassigned) [Compound 91] | – | – | 71 | 8800 | –
CCOC(=O)C1=C(CN2C[C@@H](F)[C@]3(F)C(=O)N(CC(C)(C)C(=O)O)C[C@H]23)NC(c2nccs2)=N[C@H]1c1cccc(F)c1C (single isomer, unassigned) [Compound 204D] | – | – | 0.4 | 48100 | –
CCOC(=O)C1=C(CN2CC(F)(F)[C@H]3[C@@H]2CCN3CC(C)(C)C(=O)NS(C)(=O)=O)NC(c2nccs2)=N[C@H]1c1cccc(F)c1C (single isomer, unassigned) [Compound 109] | – | – | < 1 | 7300 | –
CCOC(=O)C1=C(CN2CC(F)(F)[C@@H]3CN(C(=O)[C@@H]4C[C@@H]4C(=O)O)C[C@@H]32)NC(c2nccs2)=N[C@H]1c1cccc(F)c1C (single isomer, unassigned) [Compound 57B] | – | – | 92.2 | 51200 | –
